According to patent US20150119363A1, “METHODS OF TREATING BACTERIAL INFECTIONS” (Rampex Pharmaceuticals, Inc., priority 2012, published 2015):
Converted amounts (≈) assume the structure as drawn. Like-named read-outs stand apart in the source and are kept apart here.

Legend:
Type in all cases: cell-based
[1] = system: E. coli EC1061 (NDM-1 CMY-6); assay: Aztreonam/Tigemonam MIC at various concentrations of BLI; conditions: for MIC: Escherichia coli, E. coli EC1061, read-out: Tigemonam MIC
Procedure: MIC values for each bacterial strain were measured for each antimicrobial compound at various concentrations of each BLI. […]

[2] = system: K. pneumoniae KP1081 (NDM-1, CMY-6, SHV-11, CTX-M-15, TEM-1); assay: as above; conditions: KP1081
Procedure: (§1) MIC values for each bacterial strain were measured for each antimicrobial compound at various concentrations of each BLI.

[3] = system: E. coli EC1061 (NDM-1 CMY-6); assay: as above; conditions: Compound 68 0 μg/ml
[4] = system: bacterial strains that expressed the beta-lactamase, NDM-1 and CMY-6; assay: Aztreonam/Tigemonam MIC at various concentrations of BLI (summary)
Procedure: as §1

| SMILES | Tigemonam MIC (μg/ml) in the presence of BLI ([1]; EC1061, Compound 5 0 μg/ml) [µg/mL] | MIC ([1]; tigemonam alone) [µg/mL] | Tigemonam MIC (μg/ml) in the presence of BLI ([2]; Compound 5 0 μg/ml) [µg/mL] | Tigemonam MIC (μg/ml) in the presence of BLI ([2]; Compound 68 0 μg/ml) [µg/mL] | Tigemonam MIC (μg/ml) in the presence of BLI [3] [µg/mL] | MIC ([1]; with 0.31 μg/ml Compound A) [µg/mL] | effect on Aztreonam or Tigemonam MICs [4] |
| --- | --- | --- | --- | --- | --- | --- | --- |
| CC1(C)[C@H](NC(=O)/C(=N\OCC(=O)O)c2csc(N)n2)C(=O)N1OS(=O)(=O)O [Tigemonam, reference compound] | 8 | 8 (≈ 18.3 µM) | 16 | 16 | 16 |  |  |
| O=C(O)C[C@H]1C=CC[C@H](NC(=O)Cc2cccs2)B(O)O1 [Compound 68, 2-((3R,7S)-2-hydroxy-3-(2-(thiophen-2-yl)acetamido)-2,3,4,7-tetrahydro-1,2-oxaborepin-7-yl)acetic acid] |  |  |  |  |  | 0.5 (≈ 1.62 µM) | decreased the Aztreonam or Tigemonan MICs |
